We go through 5 compounds from patent US9119855B2, “Compositions and methods for treatment of the side-effects associated with administration of cancer chemotherapeutic agents” (Asymmetric Therapeutics, LLC, priority 2008, dated 2015).

A word on the viability: it is the share of living cells, or the viability signal relative to a control. A higher viability goes with better survival.

For data set [1] the following is noted: Van Acker et al.; cited from earlier work.
The conditions of data set [2]: Van Acker et al.; cited from earlier work. The source holds these as a separate data set.
Data set [3] is described as follows: in vitro. Conditions: human. Format: cell-based. How it is done:
The efficacy of certain compounds as protective agents when co-administered with 5-FU was tested in cell culture. […] The relative viability of the cells was determined after 120 hours.

Data set [4] deals with Caco-2 cells. The procedure: 5-FU was dissolved in water and added to media at 10 μM, the clinically-relevant dose. Media was changed every day with reapplication of 5-FU. After 72 hr, the cell viability was assessed and is expressed relative to a vehicle control (Caco-2, n=3).
Data set [5] concerns primary human skin cells. The procedure: The concentration of 5-FU was also 0.01 mM in these trials. […] The relative viability of the cells was determined after 48 hours (FIG. 7) or 72 hours (FIG. 8).
For data set [6] the following is noted: acidic / low pH, orotate not charged (Robinson et al.); cited from earlier work.
The subject of data set [7] is primary human epithelial cells of the gingiva (HEGP). The data set can be described thus: Protection of primary gingival epithelial cells from 5-FU toxicity, 72 hours (FIG. 9). Format: cell-based. From the text: GI columnar cells rely for growth predominantly on de novo pyrimidine synthesis from nutrients in the GI contents. Squamous cells of the oropharynx rely for growth predominantly on salvage of cell constituents of the overlying cells closer to the tissue surface.

Structures are written as SMILES. Entries after “also recorded” stand apart in the source; their conditions may differ. Read-outs that look alike come from different tables or passages of the source.

With `Nc1nc(O)nc2nc(O)[nH]c12` [2,8-dihydroxy adenine], in data set [1], the solubility entry is on record as “poorly soluble”. The renal toxicity result in data set [2] is “can cause renal stones”.

Turning to `O=c1[nH]cc(F)c(=O)[nH]1` [5-FU, 5-fluorouracil, reference compound], in data set [3], the viability at 120 h, 0.01 mM is less than 50%.

Turning to `Nc1ncnc2nc[nH]c12` [adenine], in data set [4], the “cytoprotection against 10 μM 5-FU toxicity” value is recorded as “progressively greater cytoprotection”. Further, in data set [4] (adenine alone, vs 10 μM 5-FU), the “excess of protective nucleobase required for quantitative protection” value is listed as roughly 100 ×.

On to `O=C(O)c1cc(=O)[nH]c(=O)[nH]1` [orotate], for which the “cytoprotection against 10 μM 5-FU toxicity” value in data set [4] was “statistically insignificant cytoprotection”. Also, the “effect of adding orotate on cytoprotection by adenine” value was “did not initially attenuate 5-FU toxicity beyond the cytoprotection provided by adenine alone” in data set [4] (orotate 1.25 mM with adenine 0.0125 mM through 1.25 mM, 10 μM 5-FU (FIG. 5)) and “progressively greater abrogation of salvage” in data set [4] (still higher concentrations of orotate with adenine 2.5 mM (FIG. 6, Results 5, 6 vs 2)). In data set [5], the “impact on skin (squamous) cell response to 5-FU exposure” value was “does not impact”. Besides, the “absorption into the systemic circulation” value in data set [6] is listed as “better absorbed; also recorded: absorbed at a higher rate”.

Take `O=c1cc[nH]c(=O)[nH]1` [uracil]: the “effect on cytoprotection by adenine 2.5 mM in combination with orotate 2.5 mM” value in data set [4] (further addition of uracil 1.25 and 2.5 mM, 10 μM 5-FU, data not shown) is “reversal of the cytoprotection”. Besides, in data set [7] (FIG. 9, 72 hours), the “efficacy and toxicity to primary gingival cells (HGEP)” value is “effective and non-toxic”. In data set [7] (excess of uracil together with 5-FU 10 μM), the “prevention of 5-FU toxicity” value is on record as “prevented 5-FU toxicity”. Besides, the “protection against 5-FU toxicity” value in data set [7] (further addition of uracil at 1.25 mM to adenine and orotate 2.5 mM each (Result Y)) was “significant protection”; in data set [7] (further addition of uracil at 2.5 mM to adenine and orotate 2.5 mM each (Result Z)), “even more significant protection”.
